The values below come from US9440966B2, “Compounds for treatment of metabolic syndrome” (SJT MOLECULAR RESEARCH, S.L., priority 2011, dated 2016).

One series has as its system female Swiss mice. Nature of the series: Acute oral toxicology study in a mice model. Conditions: oral 2000 mg/kg single dose, observation for 14 days. Type of series: in vivo. The method, then: The experiments were conducted using female Swiss mice (20-30 g), housed under a 12-h light-dark cycle, with controlled humidity (60-80%), and temperature (22±1° C.). Food and water were freely available to the mice.
Female mice (n=6) were orally (2000 mg/kg) administered with a single dose of 4a, 5a, and 7a for the observation of acute signs of toxicity until 14 days. […] The observations comprised the behavior and manifestations of the toxic symptoms, and were carried out according to the Guidelines of the Organization for Economic Cooperation and Development (OECD, 2008).
All compounds were dissolved in sterile saline and were administered by oral gavage to mice based in the weight, for example 20 g received 20 μL.
The data are expressed as mean±S.E.M. of experiments. Statistical significance was determined through one-way analysis of variances (ANOVA), followed by either Newman-Keuls test. A p<0.05 was considered statistically significant. Graphs were drawn and statistical analysis was carried out using GraphPad Prism version 5.00 for Windows (GraphPad Software, San Diego, Calif., USA).

In series [1] the test system is SHR hypertensive rats. As to the kind of experiment: Plasma triglyceride levels test in SHR hypertensive rats. Conditions: 25 days of treatment (5-15 mg/Kg) oral. The series is classed as in vivo, Male SHR. As to the method:
(§1) Male SHR were provided by Charles River Laboratories (USA). Until the experiments were carried out, the animals have had free access to feed and water. The room temperature was kept at 22±2° C. and the light/dark cycle was of 12 hours. All procedures were submitted to the Animal Experimentation Ethics Committee.
(§2) Distinct rat groups were orally treated, once a day, with 5 mg/kg of compound 4a during the first 4 days, 10 mg/kg during the next 4 days and 15 mg/kg until the end of the treatment period or vehicle (control) for the same days. Similarly, another rat group received metformin (reference drug used for lowering glucose serum levels) in a 300 mg/kg dose, orally, from day 1 to the end of the treatment. Plasma triglyceride levels were measured in triplicate 12 hours after drug administration by the glycerol phosphate oxidase/peroxidase method (BioSystems S.A, Barcelona, Spain). Blood samples were obtained by femoral vein punction. This method was chosen because of its noninvasive character, enabling daily measurements with the same rats throughout the entire treatment.

Series [2] deals with SHR hypertensive rats. Nature of the series: Blood glucose levels test in SHR hypertensive rats. Conditions: doses from 5 to 15 mg/kg oral, treatment periods of 4-15 days. Type of series: in vivo, Male SHR. The method, then: Male SHR were provided by Charles River Laboratories (USA). Until the experiments were carried out, the animals have had free access to feed and water. The food was removed 12 h before glucose determination. The room temperature was kept at 22±2° C. and the light/dark cycle was of 12 hours. All procedures were submitted to the Animal Experimentation Ethics Committee.
as §2, with “metformin” for “metformin (reference drug used for lowering glucose serum levels)”, “treatment. Blood glucose” for “treatment. Plasma triglyceride”, “administration with” for “administration by”, “the aid of a GLUCOCARD TM G meter, GT-1810. Results were compared with the effect of metformin […].” for “the glycerol phosphate oxidase/peroxidase method (BioSystems S.A, Barcelona, Spain).”

Series [3] concerns Drosophila melanogaster (Oregon-R strain). Nature of the series: Toxicology study: larva-to-adult viability and development time. Conditions: in vivo. The source says:
The purpose of this study was to test and compare the potential toxic effects of compounds 5a, 6a and 7a on the larva-to-adult viability and development time in a Drosophila melanogaster (Oregon-R) flies. These studies have a relevant predictive role with the aim to anticipate possible adverse toxicological effects that may happen during preclinical studies with animal, preferably mammals. In addition, the data provided are highly quantitative.
Drosophila melanogaster (Oregon-R) flies were obtained by the University of the Balearic Islands (Spain). […] The larvae were seeded on standard food supplemented with the appropriate dose of compounds tested. Each compound was tested at 1, 10, 100, 1000 and 2000 μg/ml dissolved in standard food.
Fly adults were transferred from the serial transfer system to bottles with fresh food for 24 h. Adults 5 days old were placed on egg collecting devices (layers) containing a mixture of agar, water, acetic acid, and ethyl alcohol, with a drop of active yeast on it. Every 2 h., the layer glasses were changed, in this way, the eggs of a glass have similar age, with a maximum difference of 2 h. among them. The glasses of the layers were kept at 25° C. for at least 22 h. in Petri dishes until larvae hatched. Fifty larvae were picked with a lancet under a stereoscopic microscope and were seeded into 10×2 cm vials with 5 ml food. Vials were supplemented with 4a, 5a and 7a at 1, 10 and 100 μg/ml. As positive control we used cupric acetate (toxic) at 350 μg/ml.
The number of adult flies which emerged from each vial was counted daily until the exhaustion of the culture. The parameters studied were the larvae-to-adult viability (V) and development time.
Viability is expressed as V=NA/NL, where NL is the input number of larvae ([…] in our case) and NA the output number of adults emerging from these NL larvae. Development time was measured in days by the formula DT=ΣNidi/ΣNi where Ni is the number of flies emerging on the day di after the larvae were placed in the medium.
The data are expressed as the mean±SEM values from 3 independent experiments involving triplicate vials at the number of flies indicated.

Series [4] concerns SHR hypertensive rats. As to the kind of experiment: Plasma cholesterol levels test in SHR hypertensive rats. The series is classed as in vivo, Male SHR. Conditions: 25 days of treatment (15 mg/Kg) oral, effect more pronounced for 5a and 7a. The method, then:
as §2, with “compounds” for “compound”, “4a or 5a or 6a” for “4a”, “metformin (MET)” for “metformin”, “cholesterol” for “triglyceride”, “cholesterol” for “glycerol phosphate”
as §1
Distinct rat groups were orally treated, once a day, with 5 mg/kg of compounds 4a or 5a or 6a during the first 4 days, 10 mg/kg during the next 4 days and 15 mg/kg until the end of the treatment period or vehicle (control) for the same days. Similarly, another rat group received metformin (reference drug used for lowering glucose serum levels) in a 300 mg/kg dose, orally, from day 1 to the end of the treatment. Blood pressure was measured in triplicate 4 hours after drug administration in warmed warmed, restrained, conscious rats by the tail-cuff method with a computerized oscillometric system recorder (Nyprem, Cibertec). This method was chosen because of its noninvasive character, enabling daily measurements with the same rats throughout the entire treatment.

For the next series, the system named is normoglycemic rats. Nature of the series: Oral glucose tolerance test in normoglycemic rats (Examples 27, 28). The series is classed as in vivo, Male Wistar rats. Conditions: vs control group. As to the method: Male Wistar rats were utilized provided by Mato Grosso do Sul's Federal University's Biotherium. Until the experiments were carried out, the animals have had free access to feed and water. The room temperature was kept at 22±2° C. and the light/dark cycle was of 12 hours.
The glucose tolerance test is a reference method for the diagnosis of diabetes or glucose intolerance (5).
Distinct rat groups were orally treated, once a day, with 3-(carbohydrazyl-N′-phenylsubstituted)-1-benzosubstituted-β-carbolinic-3-carbohydrazide (compound 7a or ANIS-BZ) at doses: 0.5, 1 or 5 mg/kg or vehicle (control) for 3 days. Similarly, another rat group received metformin (reference drug used for lowering glucose serum levels) in a 300 mg/kg dose, orally, once a day for 3 days. The oral glucose tolerance test was carried out by administering of a glucose solution (2 g/kg body mass). Glycemia was determined at zero time (before oral administering) and at 60 minutes after the glucose overload.
Distinct groups of rats were treated orally, once a day, with N(-ethylamine)-1-benzosubstituted-β-carboline-3-carboxamide (compound 4a or ANIS-NH2) at doses: 0.5, 1 or 5 mg/kg, or vehicle for 3 days. Similarly, another group of rats received metformin in a 300 mg/kg dose orally for 3 days once a day. The oral glucose tolerance test was done under the administration of a glucose solution (2 g/kg body mass). Glycemia will be determined at the zero (before oral administration) time and 60 minutes after glucose overload.

A short description of series [5]: Body weight in SHR hypertensive rats. Conditions: oral once a day 5, 10 then 15 mg/kg. The series is classed as in vivo, Male SHR. As to the method: as §1
Distinct rat groups were orally treated, once a day, with 5 mg/kg of compound 5a during the first 4 days, 10 mg/kg during the next 4 days and 15 mg/kg until the end of the treatment period or vehicle (control) for the same days. Similarly, another rat group received metformin (reference drug used for lowering glucose serum levels) in a 300 mg/kg dose, orally, from day 1 to the end of the treatment. Rats were weighted in a CHYO MK2000B precision weight chamber.

“Also recorded” adds a separate entry of the source.

For the molecule `COc1ccc(-c2nc(C(=O)NCCN)cc3c2[nH]c2ccccc23)cc1` [Compound 4a, N(-ethylamine)-1-benzosubstituted-β-carboline-3-carboxamide], the “mortality or behavioral disorders (acute signs of toxicity)” value with female Swiss mice is recorded as “did not produce mortality or any behavioral disorders”. Further, the plasma triglyceride levels entry with SHR hypertensive rats [1] was “statistically significant (p<0.05), inhibition of plasma triglyceride levels”. In addition, the “blood glucose decrease compared to the vehicle-control group” value with SHR hypertensive rats [2] is 5-7%. Moreover, the “larvae-to-adult viability and development time” value in series [3] is “not affected”. In the series with SHR hypertensive rats [4], the plasma cholesterol levels result was “inhibition of plasma cholesterol levels”. The “glycemic levels of animals that received an oral glucose overload” value with normoglycemic rats (after 3 days, 0.5 mg/kg oral once a day) was “only the 1 and 5 mg/kg doses reduced statistically significant the glycemic levels”; in the series on normoglycemic rats (after 3 days, 1 mg/kg oral once a day) it was “reduced statistically significant the glycemic levels”; in the series on normoglycemic rats (after 3 days, 5 mg/kg oral once a day, 5 mg/kg) it was “reduces the glycemic levels; also recorded: reduced statistically significant the glycemic levels”; in the series on normoglycemic rats (first day, 5 mg/kg oral, 60 min after glucose 2 g/kg), “reduces the glycemic levels”.
On to `COc1ccc(-c2nc(C(=O)NCCCN)cc3c2[nH]c2ccccc23)cc1` [Compound 5a, N(-propylamine)-1-benzosubstituted-β-carboline-3-carboxamide], for which the “mortality or behavioral disorders (acute signs of toxicity)” value in the series with female Swiss mice is on record as “did not produce mortality or any behavioral disorders”. In series [3], the “larvae-to-adult viability and development time” value is “not affected”. Moreover, the plasma cholesterol levels entry in the series on SHR hypertensive rats [4] is “inhibition of plasma cholesterol levels”. In addition, the “SHR body weight compared to control untreated rats” value in series [5] is recorded as “statistically significant effect in lowering SHR body weight”.
